Measurements published in patent US8193198B2, “Uracil compounds and a herbicide comprising the same” (Korea Research Institute of Chemical Technology, priority 2008, dated 2012).

Columns and labels:
Assay type in all cases: in vivo
Cocklebur = assay: Foliar treatment herbicidal activity test; conditions: for Herbicidal activity, Cocklebur: foliar treatment, 8 g a.i./ha, 2 weeks
Protocol: (§1) A compound fertilizer for horticulture (N:P:K=11:10:11) was mixed with sterilized sandy soil (pH 6.1, organic substance 1.0%, clay 21%, silt 17%, sand 52%), 1 g per each pot (350 cm^2). The soil was filled in a square plastic pot, and corn, Poaceae plants including Panicum dichotomiflorum and Digitaria ciliaris, broadleaf plants including Solanum nigrum, Aeschynomene indica, Abutilon theophrasti and cocklebur, or convolvulus rhizome were sown and covered with soil. Soil treatment was carried out by spraying a test formulation 1 day after the sowing, and foliar treatment, 8 to 12 days after the sowing. The test formulation was prepared by dissolving of a test compound in a mixture of 5 wt % of acetone and 1 wt % of an emulsifier, and diluting with water to prepare a wettable powder. 2000 L of the test formulation was sprayed per hectare. The amount of the active compound was adjusted to a desired quantity.
(§2) Following the treatment, the plants were grown for 2 weeks under a greenhouse condition (25-35° C. during the day and 20-25° C. at night, 14 hour light cycle). Herbicidal activity was evaluated in comparison to a non-treated control group according to the following standard: for weeds, 0 (no herbicidal effect) to 100 (complete destruction); and for crops 0 (harmless) to […] (complete destruction).

Echinochloa crus-galli = assay: Foliar treatment herbicidal activity test; conditions: 2 weeks; for pest or weed control at 8 g/ha / pest or weed control at 16 g/ha: Echinochloa crus-galli, 336 h; for pest or weed control at 16 g/ha: Table 6 (III), 16 g a.i./ha
Protocol: as §1, §2

Digitaria ciliaris [1] = assay: Foliar treatment herbicidal activity test; conditions: 2 weeks; for pest or weed control at 8 g/ha / pest or weed control at 16 g/ha: Digitaria ciliaris, 336 h; for pest or weed control at 16 g/ha: Table 6 (III), 16 g a.i./ha
Protocol: as §1, §2

monocot weeds = assay: Foliar treatment herbicidal activity test (summary in text)
Protocol: as §1, §2

Panicum dichotomiflorum = assay: Foliar treatment herbicidal activity test; conditions: 2 weeks, scale 0 to 100 (complete destruction)
Protocol: as §1, §2

Abutilon theophrasti [2] = assay: Foliar treatment herbicidal activity test; conditions: 2 weeks, scale 0 to 100 (complete destruction)
Protocol: as §1, §2

Solanum nigrum [3] = assay: Foliar treatment herbicidal activity test; conditions: 2 weeks, scale 0 to 100 (complete destruction)
Protocol: as §1, §2

Aeschynomene indica [4] = assay: Foliar treatment herbicidal activity test; conditions: 2 weeks, scale 0 to 100 (complete destruction)
Protocol: as §1, §2

Sorghum bicolor [5] = assay: Foliar treatment herbicidal activity test; conditions: Table 4 (I), 8 g a.i./ha, 2 weeks, scale 0 to 100 (complete destruction)
Protocol: as §1, §2

Corn = assay: Soil treatment test, crop harm; conditions: Table 7, 32 g a.i./ha, 2 weeks, crops scale 0 (harmless) to 10 (complete destruction)
Protocol: as §1, §2

Wheat = assay: Soil treatment test, crop harm; conditions: Table 7, 32 g a.i./ha, 2 weeks, crops scale 0 (harmless) to 10 (complete destruction)
Cyperus serotinus = assay: Foliar treatment herbicidal activity test; conditions: Table 4 (I), 8 g a.i./ha, 2 weeks, scale 0 to 100 (complete destruction)
Sorghum bicolor [6] = assay: Soil treatment herbicidal activity test; conditions: Table 7, 32 g a.i./ha, 2 weeks, scale 0 to 100 (complete destruction)
Protocol: as §1, §2

Abutilon theophrasti [7] = assay: Soil treatment herbicidal activity test; conditions: Table 7, 32 g a.i./ha, 2 weeks, scale 0 to 100 (complete destruction)
Protocol: as §1, §2

Solanum nigrum [8] = assay: Soil treatment herbicidal activity test; conditions: Table 7, 32 g a.i./ha, 2 weeks, scale 0 to 100 (complete destruction)
Protocol: as §1, §2

Aeschynomene indica [9] = assay: Soil treatment herbicidal activity test; conditions: Table 7, 32 g a.i./ha, 2 weeks, scale 0 to 100 (complete destruction)
Protocol: as §1, §2

Digitaria ciliaris [10] = assay: Soil treatment herbicidal activity test; conditions: Table 7, 32 g a.i./ha, 2 weeks, scale 0 to 100 (complete destruction)
Protocol: as §1, §2

[11] = Table 3, scale 0 (no herbicidal effect) to 100 (complete destruction)
[12] = Table 3, 8 g a.i./ha, scale 0 (no herbicidal effect) to 100 (complete destruction)
[13] = scale 0 to 100 (complete destruction)
[14] = Table 4 (I), scale 0 to 100 (complete destruction)
[15] = Table 5 (II), 8 g a.i./ha, scale 0 to 100 (complete destruction)
[16] = Table 4 (I), 8 g a.i./ha, scale 0 to 100 (complete destruction)

Row | SMILES | Herbicidal activity against cocklebur (in words) (Cocklebur) | Herbicidal activity, Cocklebur (Cocklebur; [11]) | pest or weed control at 8 g/ha (Echinochloa crus-galli; [12]) [%] | pest or weed control at 8 g/ha (Digitaria ciliaris [1]; [12]) [%] | Herbicidal activity against monocot weeds (in words) (monocot weeds) | Herbicidal activity, Panicum dichotomiflorum (Panicum dichotomiflorum; Table 6 (III), 16 g a.i./ha) | Herbicidal activity, Abutilon theophrasti (Abutilon theophrasti [2]; Table 6 (III), 16 g a.i./ha) | Herbicidal activity, Solanum nigrum (Solanum nigrum [3]; Table 6 (III), 16 g a.i./ha) | Herbicidal activity, Aeschynomene indica (Aeschynomene indica [4]; Table 6 (III), 16 g a.i./ha) | pest or weed control at 16 g/ha (Echinochloa crus-galli; [13]) [%] | pest or weed control at 16 g/ha (Digitaria ciliaris [1]; [13]) [%] | further results
1 | COC(=O)C(C)NC(=O)C(C)Oc1cc(-n2c(=O)cc(C(F)(F)F)n(C)c2=O)c(F)cc1Cl (centres unmarked) [compound 2] | imperfect herbicidal activity | 70 | 65 | 25 | very low herbicidal activity | – | – | – | – | – | – | –
2 | C=CCOC(=O)CCNC(=O)C(C)Oc1cc(-n2c(=O)cc(C(F)(F)F)n(C)c2=O)c(F)cc1Cl (centres unmarked) [Compound No. 25, 3-[{2-[2-chloro-5-(3,6-dihydro-3-methyl-2,6-dioxo-4-trifluoromethyl-1(2H)-pyrimidinyl)-4-fluorophenoxy]-1-oxopropyl}amino]propionic acid allyl ester] | – | – | – | – | – | 96 | 100 | 100 | 100 | 90 | 100 | –
3 | CCCCOC(=O)CCNC(=O)C(C)Oc1cc(-n2c(=O)cc(C(F)(F)F)n(C)c2=O)c(F)cc1Cl (centres unmarked) [Compound No. 23, 3-[{2-[2-chloro-5-(3,6-dihydro-3-methyl-2,6-dioxo-4-trifluoromethyl-1(2H)-pyrimidinyl)-4-fluorophenoxy]-1-oxopropyl}amino]propionic acid n-butyl ester] | – | – | – | – | – | 100 | 100 | 100 | 100 | 100 | 100 | –
4 | COC(=O)CCNC(=O)C(C)Oc1cc(-n2c(=O)cc(C(F)(F)F)n(C)c2=O)c(F)cc1Cl (centres unmarked) [Compound No. 1, 3-[{2-[2-chloro-5-(3,6-dihydro-3-methyl-2,6-dioxo-4-trifluoromethyl-1(2H)-pyrimidinyl)-4-fluorophenoxy]-1-oxopropyl}amino]propionic acid methyl ester] | – | 100 | 100 | 100 | – | – | – | – | – | – | – | Herbicidal activity, Sorghum bicolor (Sorghum bicolor [5]): 97; Herbicidal activity, Panicum dichotomiflorum (Panicum dichotomiflorum; Table 5 (II), 8 g a.i./ha): 100; Herbicidal activity, Abutilon theophrasti (Abutilon theophrasti [2]; Table 4 (I), 8 g a.i./ha): 100; Herbicidal activity, Abutilon theophrasti (Abutilon theophrasti [2]; Table 5 (II), 8 g a.i./ha): 100; Herbicidal activity, Cocklebur (Cocklebur; [14]): 100; Herbicidal activity, Solanum nigrum (Solanum nigrum [3]; Table 5 (II), 8 g a.i./ha): 100; Herbicidal activity, Aeschynomene indica (Aeschynomene indica [4]; Table 4 (I), 8 g a.i./ha): 100; Herbicidal activity, Aeschynomene indica (Aeschynomene indica [4]; Table 5 (II), 8 g a.i./ha): 100; Herbicidal activity, Echinochloa crus-galli (Echinochloa crus-galli; [15]): 100; Herbicidal activity, Digitaria ciliaris (Digitaria ciliaris [1]; [16]): 100; Herbicidal activity, Digitaria ciliaris (Digitaria ciliaris [1]; [15]): 100; Crop harm, Corn (Corn): 2; Crop harm, Wheat (Wheat): 3; Herbicidal activity, Cyperus serotinus (Cyperus serotinus): 100; Herbicidal activity, Sorghum bicolor (Sorghum bicolor [6]): 100; Herbicidal activity, Abutilon theophrasti (Abutilon theophrasti [7]): 100; Herbicidal activity, Solanum nigrum (Solanum nigrum [8]): 100; Herbicidal activity, Aeschynomene indica (Aeschynomene indica [9]): 100; Herbicidal activity, Digitaria ciliaris (Digitaria ciliaris [10]): 100
5 | COC(=O)CCNC(=O)C(C)Sc1cc(-n2c(=O)cc(C(F)(F)F)n(C)c2=O)c(F)cc1Cl (centres unmarked) [Compound No. 36, 3-[{2-[2-chloro-5-(3,6-dihydro-3-methyl-2,6-dioxo-4-trifluoromethyl-1(2H)-pyrimidinyl)-4-fluorophenylthio]-1-oxopropyl}amino]propionic acid methyl ester] | – | – | – | – | – | – | – | – | – | – | – | Herbicidal activity, Sorghum bicolor (Sorghum bicolor [5]): 100; Herbicidal activity, Abutilon theophrasti (Abutilon theophrasti [2]; Table 4 (I), 8 g a.i./ha): 100; Herbicidal activity, Cocklebur (Cocklebur; [14]): 100; Herbicidal activity, Aeschynomene indica (Aeschynomene indica [4]; Table 4 (I), 8 g a.i./ha): 100; pest or weed control at 8 g/ha (Digitaria ciliaris [1]; [16]): 100%; Crop harm, Corn (Corn): 0; Crop harm, Wheat (Wheat): 0; Herbicidal activity, Cyperus serotinus (Cyperus serotinus): 100; Herbicidal activity, Sorghum bicolor (Sorghum bicolor [6]): 100; Herbicidal activity, Abutilon theophrasti (Abutilon theophrasti [7]): 100; Herbicidal activity, Solanum nigrum (Solanum nigrum [8]): 100; Herbicidal activity, Aeschynomene indica (Aeschynomene indica [9]): 100; Herbicidal activity, Digitaria ciliaris (Digitaria ciliaris [10]): 100
6 | COC(=O)CNC(=O)C(C)Oc1cc(-n2c(=O)cc(C(F)(F)F)n(C)c2=O)c(F)cc1Cl (centres unmarked) [compound 1] | imperfect herbicidal activity | 98 | 55 | 30 | very low herbicidal activity | – | – | – | – | – | – | –
7 | COC(=O)COC(=O)CCNC(=O)C(C)Oc1cc(-n2c(=O)cc(C(F)(F)F)n(C)c2=O)c(F)cc1Cl (centres unmarked) [Compound No. 22, 3-[{2-[2-chloro-5-(3,6-dihydro-3-methyl-2,6-dioxo-4-trifluoromethyl-1(2H)-pyrimidinyl)-4-fluorophenoxy]-1-oxopropyl}amino]propionyloxy acetic acid methyl ester] | – | – | – | – | – | 100 | 100 | 100 | 100 | 100 | 85 | –
8 | COC(=O)CONC(=O)C(C)Oc1cc(-n2c(=O)cc(C(F)(F)F)n(C)c2=O)c(F)cc1Cl (centres unmarked) [compound 3] | imperfect herbicidal activity | 95 | 30 | 10 | very low herbicidal activity | – | – | – | – | – | – | –
9 | CCOC(=O)CCNC(=O)C(C)Oc1cc(-n2c(=O)cc(C(F)(F)F)n(C)c2=O)c(F)cc1Cl (centres unmarked) [Compound No. 24, 3-[{2-[2-chloro-5-(3,6-dihydro-3-methyl-2,6-dioxo-4-trifluoromethyl-1(2H)-pyrimidinyl)-4-fluorophenoxy]-1-oxopropyl}amino]propionic acid ethyl ester] | – | – | – | – | – | – | – | – | – | – | – | Herbicidal activity, Panicum dichotomiflorum (Panicum dichotomiflorum; Table 5 (II), 8 g a.i./ha): 99; Herbicidal activity, Abutilon theophrasti (Abutilon theophrasti [2]; Table 5 (II), 8 g a.i./ha): 100; Herbicidal activity, Solanum nigrum (Solanum nigrum [3]; Table 5 (II), 8 g a.i./ha): 100; Herbicidal activity, Aeschynomene indica (Aeschynomene indica [4]; Table 5 (II), 8 g a.i./ha): 100; pest or weed control at 8 g/ha (Echinochloa crus-galli; [15]): 98%; pest or weed control at 8 g/ha (Digitaria ciliaris [1]; [15]): 99%
10 | C#CCOC(=O)CCNC(=O)C(C)Oc1cc(-n2c(=O)cc(C(F)(F)F)n(C)c2=O)c(F)cc1Cl (centres unmarked) [Compound No. 26, 3-[{2-[2-chloro-5-(3,6-dihydro-3-methyl-2,6-dioxo-4-trifluoromethyl-1(2H)-pyrimidinyl)-4-fluorophenoxy]-1-oxopropyl}amino]propionic acid propargyl ester] | – | – | – | – | – | 90 | 100 | 100 | 100 | 90 | 95 | –
